Data as given in paper PMC4306947, “Synthesis and Antiproliferative Activity of Thiazolyl-bis-pyrrolo[2,3-b]pyridines and Indolyl-thiazolyl-pyrrolo[2,3-c]pyridines, Nortopsentin Analogues” (Marine Drugs, 2015).

Compound	melting point
c1cnc2[nH]cc(-c3csc(-c4c[nH]c5ncccc45)n3)c2c1 [Compound 1a, 3,3′-(1,3-Thiazole-2,4-diyl)bis(1H-pyrrolo[2,3-b]pyridine)]	346 to 347 °C
Brc1cnc2[nH]cc(-c3csc(-c4c[nH]c5ncccc45)n3)c2c1 [Compound 1b, 5-Bromo-3-[2-(1H-pyrrolo[2,3-b]pyridin-3-yl)-1,3-thiazol-4-yl)-1H-pyrrolo[2,3-b]pyridine]	390 to 391 °C
Fc1cnc2[nH]cc(-c3csc(-c4c[nH]c5ncccc45)n3)c2c1 [Compound 1c, 5-Fluoro-3-[2-(1H-pyrrolo[2,3-b]pyridin-3-yl)-1,3-thiazol-4-yl]-1H-pyrrolo[2,3-b]pyridine]	373 to 374 °C
Cn1cc(-c2nc(-c3c[nH]c4ncccc34)cs2)c2cccnc21 [Compound 1d, 1-Methyl-3-[4-(1H-pyrrolo[2,3-b]pyridin-3-yl)-1,3-thiazol-2-yl]-1H-pyrrolo[2,3-b]pyridine]	278 to 279 °C
Cn1cc(-c2nc(-c3c[nH]c4ncc(Br)cc34)cs2)c2cccnc21 [Compound 1e, 3-[4-(5-Bromo-1H-pyrrolo[2,3-b]pyridin-3-yl)-1,3-thiazol-2-yl]-1-methyl-1H-pyrrolo[2,3-b]pyridine]	311 °C
Cn1cc(-c2nc(-c3c[nH]c4ncc(F)cc34)cs2)c2cccnc21 [Compound 1f, 3-[4-(5-Fluoro-1H-pyrrolo[2,3-b]pyridin-3-yl)-1,3-thiazol-2-yl]-1-methyl-1H-pyrrolo[2,3-b]pyridine]	316 °C
Cn1cc(-c2csc(-c3cn(C)c4ncccc34)n2)c2cccnc21 [Compound 1g, 3,3′-(1,3-Thiazole-2,4-diyl)bis(1-methyl-1H-pyrrolo[2,3-b]pyridine)]	310 to 311 °C
Cn1cc(-c2csc(-c3cn(C)c4ncccc34)n2)c2cc(Br)cnc21 [Compound 1h, 5-Bromo-1-methyl-3-[2-(1-methyl-1H-pyrrolo[2,3-b]pyridin-3-yl)-1,3-thiazol-4-yl]-1H pyrrolo[2,3-b]pyridine]	308 °C
Cn1cc(-c2csc(-c3cn(C)c4ncccc34)n2)c2cc(F)cnc21 [Compound 1i, 5-Fluoro-1-methyl-3-[2-(1-methyl-1H-pyrrolo[2,3-b]pyridin-3-yl)-1,3-thiazol-4-yl]-1H-pyrrolo[2,3-b]pyridine]	301 to 302 °C
Cn1cc(C2(c3c[nH]c4ncccc34)CSC=N2)c2cccnc21 (stereo not shown) [Compound 1j, 1-Methyl-3-[4-(1H-pyrrolo[2,3-b]pyridin-3-yl)-1,3-thiazol-4-yl]-1H-pyrrolo[2,3-b]pyridine]	303 to 304 °C
Cn1cc(-c2csc(-c3c[nH]c4ncccc34)n2)c2cc(F)cnc21 [Compound 1l, 5-Fluoro-1-methyl-3-[2-(1H-pyrrolo[2,3-b]pyridin-3-yl)-1,3-thiazol-4-yl]-1H-pyrrolo[2,3-b]pyridine]	295 to 296 °C
Cn1cc(-c2nc(-c3c[nH]c4c(Cl)nccc34)cs2)c2ccccc21 [Compound 2a, 7-Chloro-3-[2-(1-methyl-1H-indol-3-yl)-1,3-thiazol-4-yl]-1H-pyrrolo[2,3-c]pyridine]	326 to 327 °C
COc1ccc2c(c1)c(-c1nc(-c3c[nH]c4c(Cl)nccc34)cs1)cn2C [Compound 2b, 7-Chloro-3-[2-(5-methoxy-1-methyl-1H-indol-3-yl)-1,3-thiazol-4-yl]-1H-pyrrolo[2,3-c]pyridine]	216 to 217 °C
Cn1cc(-c2nc(-c3c[nH]c4c(Cl)nccc34)cs2)c2cc(Br)ccc21 [Compound 2c, 3-[2-(5-Bromo-1-methyl-1H-indol-3-yl)-1,3-thiazol-4-yl]-7-chloro-1H-pyrrolo[2,3-c]pyridine]	374 to 375 °C
Cn1cc(-c2nc(-c3c[nH]c4c(Cl)nccc34)cs2)c2cc(F)ccc21 [Compound 2d, 7-Chloro-3-[2-(5-fluoro-1-methyl-1H-indol-3-yl)-1,3-thiazol-4-yl]-1H-pyrrolo[2,3-c]pyridine]	337 to 338 °C
Cn1cc(-c2nc(-c3cn(C)c4c(Cl)nccc34)cs2)c2ccccc21 [Compound 2e, 7-Chloro-1-methyl-3-[2-(1-methyl-1H-indol-3-yl)-1,3-thiazol-4-yl]-1H-pyrrolo[2,3-c]pyridine]	265 to 266 °C

Compound	melting point
COc1ccc2c(c1)c(-c1nc(-c3cn(C)c4c(Cl)nccc34)cs1)cn2C [Compound 2f, 7-Chloro-3-[2-(5-methoxy-1-methyl-1H-indol-3-yl)-1,3-thiazol-4-yl]-1-methyl-1H-pyrrolo[2,3-c]pyridine]	231 to 232 °C
Cn1cc(-c2nc(-c3cn(C)c4c(Cl)nccc34)cs2)c2cc(Br)ccc21 [Compound 2g, 3-[2-(5-Bromo-1-methyl-1H-indol-3-yl)-1,3-thiazol-4-yl]-7-chloro-1-methyl-1H-pyrrolo[2,3-c]pyridine]	249 to 250 °C
Cn1cc(-c2nc(-c3cn(C)c4c(Cl)nccc34)cs2)c2cc(F)ccc21 [Compound 2h, 7-Chloro-3-[2-(5-fluoro-1-methyl-1H-indol-3-yl)-1,3-thiazol-4-yl]-1-methyl-1H-pyrrolo[2,3-c]pyridine]	284 to 285 °C
Cn1cc(-c2csc(-c3c[nH]c4ccc(F)cc34)n2)c2ccnc(Cl)c21 [Compound 2i, 7-Chloro-3-[2-(5-fluoro-1H-indol-3-yl)-1,3-thiazol-4-yl]-1-methyl-1H-pyrrolo[2,3-c]pyridine]	284 to 285 °C
Fc1ccc2[nH]cc(-c3nc(-c4c[nH]c5c(Cl)nccc45)cs3)c2c1 [Compound 2j, 7-Chloro-3-[2-(5-fluoro-1H-indol-3-yl)-1,3-thiazol-4-yl]-1H-pyrrolo[2,3-c]pyridine]	281 to 282 °C
CC(C)(C)OC(=O)n1cc(-c2nc(-c3c[nH]c4c(Cl)nccc34)cs2)c2ccccc21 [Compound 3a, Tert-Butyl 3-[4-(7-Chloro-1H-pyrrolo[2,3-c]pyridin-3-yl)-1,3-thiazol-2-yl]-1H-indole-1-carboxylate]	225 to 226 °C
COc1ccc2c(c1)c(-c1nc(-c3c[nH]c4c(Cl)nccc34)cs1)cn2C(=O)OC(C)(C)C [Compound 3b, Tert-Butyl 3-[4-(7-chloro-1H-pyrrolo[2,3-c]pyridin-3-yl)-1,3-thiazol-2-yl]-5-methoxy-1H-indole-1-carboxylate]	312 to 313 °C
CC(C)(C)OC(=O)n1cc(-c2nc(-c3c[nH]c4c(Cl)nccc34)cs2)c2cc(Br)ccc21 [Compound 3c, Tert-Butyl 5-bromo-3-[4-(7-chloro-1H-pyrrolo[2,3-c]pyridin-3-yl)-1,3-thiazol-2-yl]-1H-indole-1-carboxylate]	241 to 242 °C
Cn1cc(-c2csc(-c3cn(C(=O)OC(C)(C)C)c4ccccc34)n2)c2ccnc(Cl)c21 [Compound 3d, Tert-Butyl 3-[4-(7-chloro-1-methyl-1H-pyrrolo[2,3-c]pyridin-3-yl)-1,3-thiazol-2-yl]-1H-indole-1-carboxylate]	279 to 280 °C
Cn1cc(-c2csc(-c3cn(C(=O)OC(C)(C)C)c4ccc(Br)cc34)n2)c2ccnc(Cl)c21 [Compound 3f, Tert-Butyl 5-bromo-3-[4-(7-chloro-1-methyl-1H-pyrrolo[2,3-c]pyridin-3-yl)-1,3-thiazol-2-yl]-1H-indole-1-carboxylate]	257 °C
Clc1nccc2c(-c3csc(-c4c[nH]c5ccccc45)n3)c[nH]c12 [Compound 4a, 7-Chloro-3-[2-(1H-indol-3-yl)-1,3-thiazol-4-yl]-1H-pyrrolo[2,3-c]pyridine]	271 to 272 °C
COc1ccc2[nH]cc(-c3nc(-c4c[nH]c5c(Cl)nccc45)cs3)c2c1 [Compound 4b, 7-Chloro-3-[2-(5-methoxy-1H-indol-3-yl)-1,3-thiazol-4-yl]-1H-pyrrolo[2,3-c]pyridine]	223 to 224 °C
Cn1cc(-c2csc(-c3c[nH]c4ccccc34)n2)c2ccnc(Cl)c21 [Compound 4d, 7-Chloro-3-[2-(1H-indol-3-yl)-1,3-thiazol-4-yl]-1-methyl-1H-pyrrolo[2,3-c]pyridine]	210 to 211 °C
COc1ccc2[nH]cc(-c3nc(-c4cn(C)c5c(Cl)nccc45)cs3)c2c1 [Compound 4e, 7-Chloro-3-[2-(5-methoxy-1H-indol-3-yl)-1,3-thiazol-4-yl]-1-methyl-1H-pyrrolo[2,3-c]pyridine]	184 to 185 °C
Cn1cc(-c2csc(-c3c[nH]c4ccc(Br)cc34)n2)c2ccnc(Cl)c21 [Compound 4f, 3-[2-(5-Bromo-1H-indol-3-yl)-1,3-thiazol-4-yl]-7-chloro-1-methyl-1H-pyrrolo[2,3-c]pyridine]	273 to 274 °C
